Source: ChEMBL document CHEMBL1201862, “PubChem BioAssay data set” (2004)
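Assay format: 96-well plates, 48-hour exposure. Abbreviation: GI50, concentration required for 50% inhibition of growth.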 Active and inactive are the calls of the source. No stated cut-off is given here; in the data, active = GI50 up to about 1.1 µM and inactive = higher.

What was measured:
Test in all cases: NCI anticancer screen, dose series, 48 h
786-0 = test system: 786-0
A549 = test system: A549
EKVX = test system: EKVX
HCC 2998 = test system: HCC 2998
HOP-62 = test system: HOP-62
OVCAR-8 = test system: OVCAR-8
RXF 393 = test system: RXF 393
SF-268 = test system: SF-268
SF-295 = test system: SF-295
SK-MEL-28 = test system: SK-MEL-28
SK-MEL-2 = test system: SK-MEL-2
SK-MEL-5 = test system: SK-MEL-5
SN12C = test system: SN12C
SNB-19 = test system: SNB-19
SNB-75 = test system: SNB-75
SNB-78 = test system: SNB-78
UACC-257 = test system: UACC-257
UACC-62 = test system: UACC-62

Measured: GI50

CCOC(=O)CCC1(C(=O)OCC)CCCC1=O (configuration not stated)
inactive: 786-0 > 100 µM | A549 > 100 µM | EKVX > 100 µM | HCC 2998 > 100 µM | HOP-62 > 100 µM | OVCAR-8 > 100 µM | RXF 393 > 100 µM | SF-268 > 100 µM | SF-295 > 100 µM | SK-MEL-28 > 100 µM | SK-MEL-2 > 100 µM | SK-MEL-5 > 100 µM | SN12C > 100 µM | SNB-19 > 100 µM | SNB-75 > 100 µM | SNB-78 > 100 µM | UACC-257 > 100 µM | UACC-62 > 100 µM

O=C(/C=C/c1c(O)ccc2ccccc12)c1ccc2ccccc2c1
inactive: 786-0 > 100 µM | A549 > 100 µM | EKVX > 100 µM | HCC 2998 > 100 µM | HOP-62 > 100 µM | OVCAR-8 > 100 µM | RXF 393 > 100 µM | SF-268 > 100 µM | SF-295 > 100 µM | SK-MEL-28 > 100 µM | SK-MEL-2 > 100 µM | SN12C > 100 µM | SNB-19 > 100 µM | SNB-75 > 100 µM | SNB-78 > 100 µM | UACC-257 > 100 µM | UACC-62 59.8 µM

NN=C1/C(=C\c2ccccc2)CCC/C1=C/c1ccccc1
inactive: 786-0 39.5 µM | A549 33.3 µM | EKVX 44.7 µM | HCC 2998 35.6 µM | HOP-62 32.8 µM | OVCAR-8 50.4 µM | RXF 393 31 µM | SF-268 34.3 µM | SF-295 45.3 µM | SK-MEL-28 39.5 µM | SK-MEL-2 36.6 µM | SN12C 27 µM | SNB-19 44 µM | SNB-75 17.7 µM | SNB-78 50.5 µM | UACC-257 30.8 µM | UACC-62 40.3 µM

Cc1nc(C(N)=O)c(N)n1CCN1CCN(C(=O)CCCCCCCCCCNC2NC=Nc3[nH]cnc32)CC1 (configuration not stated)
inactive: 786-0 > 100 µM | A549 51.2 µM | HCC 2998 > 100 µM | HOP-62 91.6 µM | OVCAR-8 33.9 µM | SF-268 41.7 µM | SF-295 41.1 µM | SK-MEL-28 22 µM | SK-MEL-2 14.3 µM | SN12C 80.7 µM | SNB-19 > 100 µM | SNB-78 39.5 µM | UACC-257 16.3 µM | UACC-62 29.8 µM

COc1ccc(/C=C2\CCCC(C(NO)c3ccc(OC)cc3)C2=NO)cc1 (configuration not stated)
inactive: 786-0 29.2 µM | A549 44.5 µM | EKVX 48.8 µM | HCC 2998 61.2 µM | HOP-62 98.9 µM | OVCAR-8 40.5 µM | RXF 393 26.7 µM | SF-268 68.2 µM | SF-295 55.6 µM | SK-MEL-28 26.9 µM | SK-MEL-2 85.1 µM | SK-MEL-5 20 µM | SN12C 39.3 µM | SNB-19 61.4 µM | SNB-75 26.3 µM | SNB-78 45.7 µM | UACC-257 38.1 µM | UACC-62 53 µM

O=c1[nH]c(C2CCCCC2)nc2cc(Cl)ccc12
inactive: 786-0 70 µM | A549 > 100 µM | EKVX > 100 µM | HCC 2998 > 100 µM | OVCAR-8 > 100 µM | RXF 393 45.6 µM | SF-268 > 100 µM | SF-295 92.7 µM | SK-MEL-28 > 100 µM | SK-MEL-2 > 100 µM | SK-MEL-5 > 100 µM | SN12C > 100 µM | SNB-19 > 100 µM | SNB-75 55.6 µM | SNB-78 > 100 µM | UACC-257 > 100 µM | UACC-62 > 100 µM

O=C1NC2C(=O)N(Cc3ccccc3)C(=O)C2N1 (configuration not stated)
inactive: 786-0 > 100 µM | A549 > 100 µM | EKVX > 100 µM | HCC 2998 > 100 µM | HOP-62 > 100 µM | RXF 393 > 100 µM | SF-268 > 100 µM | SF-295 > 100 µM | SK-MEL-28 > 100 µM | SK-MEL-5 > 100 µM | SN12C > 100 µM | SNB-19 > 100 µM | SNB-75 > 100 µM | SNB-78 > 100 µM | UACC-257 > 100 µM | UACC-62 > 100 µM

CC/C(CC(=O)CCC(=O)Nc1ccc(C)c(C)c1)=N\NC(=O)C(N)=O
inactive: 786-0 > 100 µM | A549 > 100 µM | EKVX > 100 µM | HOP-62 > 100 µM | OVCAR-8 > 100 µM | SF-268 > 100 µM | SF-295 > 100 µM | SK-MEL-28 > 100 µM | SK-MEL-5 > 100 µM | SN12C > 100 µM | SNB-19 > 100 µM | SNB-75 > 100 µM | SNB-78 > 100 µM | UACC-257 > 100 µM | UACC-62 > 100 µM
